Data taken from paper PMC13266999, “Designing Antibiotics with Inherent Resistance to Efflux as a Strategy to Revive Discovery against Multidrug-Resistant Pathogens” (Journal of Medicinal Chemistry, 2026).
Where two headings read alike, the source gives them in different places.

How the values were obtained:
Test in all cases: MIC (microbroth dilution)
[1] = test system: E. coli; type: cell-based; details: Escherichia coli
Protocol: (§1) All bacteria were maintained on tryptic soy agar (TSA), except Streptococcus spp., which were maintained on Columbia agar plates containing 5% horse blood. […] Bacteria were grown to stationary phase in liquid culture overnight, with shaking at 200 rpm, before being back diluted to the relevant starting concentration for each assay below. MICs were measured by the microbroth dilution method. […] Absorbance at OD600 was read on a CLARIOstar spectrophotometer (BMG Labtech) and the MIC was defined as the minimum concentration of compound where no visible growth was detected. […] MICs were also performed in the presence of the outer membrane permeator, polymyxin b nonapeptide (PMBN) following the same MIC method but with the following variation. The 2-fold dilution series of compound was prepared as above, then 50 μL of PMBN at a final concentration of 30 μg/mL was added to relevant wells, while 50 μL/well of blank media was added to the remaining wells. Bacteria were then added at 50 μL/well for a starting concentration as above. […] The MICs were read and defined as above. All animal procedures were performed by the contract research organization Pharmacology Discovery Services Taiwan in accordance with the Guide for the Care and Use of Laboratory Animals. The procedures were approved by the Institutional Ethics Committee of Pharmacology Discovery Services Taiwan, Ltd. (approval no. AB127662), in compliance with animal welfare legislation in Taiwan.

[2] = test system: S. aureus; type: cell-based, Staphylococcus aureus
Procedure, shortened: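 Overnight stationary-phase cultures back-diluted and tested by broth microdilution with 2-fold compound series. MIC is lowest concentration with no visible growth, with OD600 also read. Separate runs included polymyxin B nonapeptide at 30 μg/mL final as outer-membrane permeabilizer.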

[3] = test system: Pseudomonas aeruginosa; type: cell-based
Procedure, shortened: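 Broth microdilution MICs were run in tryptic soy broth, or for Streptococcus spp. in cation-adjusted Mueller Hinton broth with 2.5% lysed horse blood, using overnight stationary-phase cultures back-diluted. MIC was the lowest concentration with no visible growth, with OD600 also read. Some MICs included PMBN at 30 μg/mL final.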

[4] = test system: K. pneumoniae; type: cell-based, Klebsiella pneumoniae
Protocol: as §1

C[C@H]1COc2c(N3CCN(C)CC3)c(F)cc3c(=O)c(C(=O)O)cn1c23 [Levofloxacin, (S)-9-Fluoro-3-methyl-10-(4-methylpiperazin-1-yl)-7-oxo-2,3-dihydro-7H-[1,4]oxazino[2,3,4-ij]quinoline-6-carboxylic acid, reference compound]
0.5 µg/mL: MIC ([1]; LEC077) | MIC ([1]; LEC081) | MIC ([3]; Pseudomonas aeruginosa, PAO1)
64 µg/mL: MIC ([3]; Pseudomonas aeruginosa, GH12)
0.125 µg/mL: MIC ([2]; Staphylococcus aureus, ATCC9144, ATCC 9144, read-out: MIC) | MIC ([2]; Staphylococcus aureus, SA-1199, read-out: MIC) | MIC ([3]; PAO1, + PMBN) | MIC50 ([3]; Pseudomonas aeruginosa, in the presence of PMBN, n = 7 strains) | MIC ([4]; Klebsiella pneumoniae) | MIC ([4]; TW3)
8 µg/mL: MIC ([1]; 319238/UR)
≤ 0.016 µg/mL: MIC ([1]; NCTC12923, NCTC 12923)
4 µg/mL: MIC ([3]; GH12, + PMBN) | MIC ([3]; Pseudomonas aeruginosa, NCTC12903, NCTC 12903) | MIC ([3]; Pseudomonas aeruginosa, NCTC13359, NCTC 13359)
128 µg/mL: MIC ([3]; Pseudomonas aeruginosa, CFL 004 CRCN, read-out: MIC)
0.25 µg/mL: MIC ([2]; ATCC 9144) | MIC ([2]; SA-1199) | MIC ([2]; Staphylococcus aureus, 1199, + 4% albumin, read-out: MIC) | MIC ([2]; Staphylococcus aureus, ATCC9144, ATCC 9144, + 4% albumin, read-out: MIC) | MIC ([3]; NCTC 13359, + PMBN) | MIC ([3]; Pseudomonas aeruginosa, GH100)
1 µg/mL: MIC ([2]; Staphylococcus aureus, SA-1199B (NorA-overexpressing))
≤ 0.03 µg/mL: MIC ([3]; PAO1 ΔmexB, + PMBN)
2 µg/mL: MIC ([2]; SA-1199B (NorA-overexpressing)) | MIC ([2]; Staphylococcus aureus, 1199b, + 4% albumin, read-out: MIC) | MIC ([3]; Pseudomonas aeruginosa, CAS4) | MIC ([3]; Pseudomonas aeruginosa, NCTC10662, NCTC 10662) | MIC ([3]; Pseudomonas aeruginosa, PAO1, PAO1) | MIC ([4]; Klebsiella pneumoniae, NCTC13368, NCTC 13368, read-out: MIC)
≤ 0.06 µg/mL: MIC ([1]; LEC006) | MIC ([1]; LEC007) | MIC ([1]; NCTC10418, NCTC 10418) | MIC ([1]; NCTC11954, NCTC 11954) | MIC ([1]; NCTC12241, NCTC 12241)
≤ 0.125 µg/mL: MIC ([3]; CAS4, + PMBN) | MIC ([3]; NCTC 10662, + PMBN) | MIC ([3]; NCTC 12903, + PMBN)
16 µg/mL: MIC ([2]; Staphylococcus aureus, NCTC13277, NCTC 13277, + 4% albumin, read-out: MIC) | MIC ([2]; Staphylococcus aureus, NCTC13277, NCTC 13277, read-out: MIC) | MIC ([2]; Staphylococcus aureus, NCTC13616, NCTC 13616, + 4% albumin, read-out: MIC) | MIC ([2]; Staphylococcus aureus, NCTC13616, NCTC 13616, read-out: MIC) | MIC ([3]; CFL 004 CRCN, + PMBN)
